Assay results reported in publication PMC10415338, “HIV-1-induced nuclear invaginations mediated by VAP-A, ORP3, and Rab7 complex explain infection of activated T cells” (Nature Communications, 2023).

Target: T1, VOR complex (VAP-A, ORP3, Rab7); Rab7 binding to ORP3 (Homo sapiens, UniProt Q9H4L5)
T1 construct: gene OSBPL3; endogenous full-length proteins in HeLa detergent lysate, ORP3 immunoisolated with antibody D-12; with Ras-related protein Rab-7a; Vesicle-associated membrane protein-associated protein A
T1 sequence (Q9H4L5 1-887): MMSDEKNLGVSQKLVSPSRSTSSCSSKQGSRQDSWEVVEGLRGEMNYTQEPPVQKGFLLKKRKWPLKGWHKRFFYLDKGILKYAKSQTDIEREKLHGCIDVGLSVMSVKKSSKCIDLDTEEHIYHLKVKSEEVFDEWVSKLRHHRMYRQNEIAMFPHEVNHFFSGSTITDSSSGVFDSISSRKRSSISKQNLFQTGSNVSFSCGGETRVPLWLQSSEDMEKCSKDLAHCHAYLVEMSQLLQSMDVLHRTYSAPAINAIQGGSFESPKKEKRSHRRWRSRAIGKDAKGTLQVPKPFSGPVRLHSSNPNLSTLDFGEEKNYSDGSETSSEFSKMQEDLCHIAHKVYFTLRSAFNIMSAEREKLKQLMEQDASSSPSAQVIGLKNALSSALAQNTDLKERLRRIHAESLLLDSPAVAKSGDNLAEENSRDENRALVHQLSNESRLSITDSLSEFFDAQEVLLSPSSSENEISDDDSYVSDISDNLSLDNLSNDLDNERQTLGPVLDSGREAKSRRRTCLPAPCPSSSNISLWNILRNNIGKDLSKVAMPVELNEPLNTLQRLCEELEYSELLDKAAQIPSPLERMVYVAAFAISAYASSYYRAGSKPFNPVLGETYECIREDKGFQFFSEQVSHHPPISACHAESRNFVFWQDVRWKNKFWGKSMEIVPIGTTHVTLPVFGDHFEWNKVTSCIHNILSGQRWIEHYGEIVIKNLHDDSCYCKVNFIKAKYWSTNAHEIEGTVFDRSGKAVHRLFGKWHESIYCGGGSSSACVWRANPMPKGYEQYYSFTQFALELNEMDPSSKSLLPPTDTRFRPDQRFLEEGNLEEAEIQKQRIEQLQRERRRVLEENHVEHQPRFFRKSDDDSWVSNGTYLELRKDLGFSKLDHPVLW
T1 sequence (Q9P0L0 2-249 partner): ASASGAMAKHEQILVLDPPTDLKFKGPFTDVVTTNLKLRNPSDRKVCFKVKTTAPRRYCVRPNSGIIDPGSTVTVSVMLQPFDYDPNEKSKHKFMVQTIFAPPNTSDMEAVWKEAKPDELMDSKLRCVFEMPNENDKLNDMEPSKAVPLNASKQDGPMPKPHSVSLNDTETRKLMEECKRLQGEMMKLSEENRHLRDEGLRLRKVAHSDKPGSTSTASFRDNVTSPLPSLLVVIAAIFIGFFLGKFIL
Test: ORP3 immunoisolation from drug-treated HeLa detergent lysate, Rab7/ORP3 immunoblot ratio, linear regression
Type: biochemical
Settings: inhibition of Rab7 binding to ORP3 (VAP-A/ORP3); lysate with 1-10 μM compound, 30 min on ice; direct site on ORP3 ORD only cited from earlier work

| Compound | IC50 |
| --- | --- |
| CCC(C)n1ncn(-c2ccc(Cl)cc2)c1=O (centres unmarked) [PRR851] | 4.8 µM |
| CCC(C)n1ncn(-c2ccc(N3CCN(c4ccc(OCC5COC(Cn6cncn6)(c6ccc(Cl)cc6Cl)O5)cc4)CC3)cc2)c1=O (stereo not drawn) [ICZ, cis-4[4-4-4[[2-(2-4-dichlorophenyl)-2-(1H-1,2,4,triazol-1-methyl)-1,3-dioxolan-4-yl]-1-piperazinyl]phenyl]-2,4-dihydro-2-(1-methyl-propyl)-3H-1,2,4-triazol-3-one] | 4.9 µM |
